Values quoted from earlier work, collected in article PMC11785709, “Angelica gigas Nakai (Korean Dang-gui) Root Alcoholic Extracts in Health Promotion and Disease Therapy – active Phytochemicals and In Vivo Molecular Targets” (Pharmaceutical Research, 2025).

What was measured:
[1] = system: sleep architectures; parameters: method as in PMID 28066138; details: DA 50 mg/kg, po; cited from earlier work
[2] = system: carboxyesterase-2 (CES2); details: cited from earlier work

Structure (SMILES): C/C=C(/C)C(=O)O[C@H]1Cc2cc3ccc(=O)oc3cc2OC1(C)C [DA, decursinol angelate]
- total sleep time (EEG) [1]: increased total sleep time
- CES2 contribution to metabolism to DOH [2]: not
